# Results as given in ChEMBL document CHEMBL1201862, “PubChem BioAssay data set” (2004).
#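 In this assay, cells in 96-well plates receive the compound at five concentrations for 48 hours. Endpoints are linearly interpolated between the surrounding concentrations. The concentration for 50% growth inhibition is given as GI50.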 Calls of active or inactive are those of the source. Cut-off read from the data, not from the text of the source: active = GI50 up to about 1.1 µM and inactive = higher.
# Key:
# Experiment in all cases: inhibition of tumour cell growth, NCI panel, 48 h
# [1] = tested on: M14
# [2] = tested on: HCT-15
# [3] = tested on: MCF7
# [4] = tested on: U-251
# [5] = tested on: UO-31
# [6] = tested on: UACC-62
# [7] = tested on: NCI-H23
# [8] = tested on: SNB-75
# [9] = tested on: HOP-62
# [10] = tested on: SW-620
# [11] = tested on: Hs-578T
# [12] = tested on: PC-3
# [13] = tested on: SK-MEL-2
# [14] = tested on: NCI-H460
# [15] = tested on: HCT-116
# [16] = tested on: SF-268
# [17] = tested on: A498
# [18] = tested on: MDA-MB-435
# [19] = tested on: CAKI-1
# [20] = tested on: A549
Compound,GI50 [1],GI50 [2],GI50 [3],GI50 [4],GI50 [5],GI50 [6],GI50 [7],GI50 [8],GI50 [9],GI50 [10],GI50 [11],GI50 [12],GI50 [13],GI50 [14],GI50 [15],GI50 [16],GI50 [17],GI50 [18],GI50 [19],GI50 [20]
COc1ccc2c(c1)OC1c3ccccc3OCC21 (centres undefined),93.5 µM (inactive),62.7 µM,88.1 µM (inactive),> 100 µM (inactive),48.9 µM (inactive),> 100 µM (inactive),61.4 µM (inactive),27.4 µM (inactive),> 100 µM (inactive),96.8 µM (inactive),> 100 µM (inactive),> 100 µM (inactive),> 100 µM (inactive),61.9 µM (inactive),77.3 µM (inactive),32.8 µM (inactive),> 100 µM (inactive),30.7 µM (inactive),> 100 µM (inactive),–
Cc1cccc(C(C)(C)C)c1NC(=O)/C(Cc1nc2ccc([N+](=O)[O-])cc2nc1O)=N\NC(=O)C[N+](C)(C)C,> 100 µM (inactive),> 100 µM,74.6 µM (inactive),> 100 µM (inactive),37.8 µM (inactive),> 100 µM (inactive),> 100 µM (inactive),> 100 µM (inactive),–,65.8 µM (inactive),> 100 µM (inactive),62.5 µM (inactive),> 100 µM (inactive),> 100 µM (inactive),> 100 µM (inactive),> 100 µM (inactive),60.7 µM (inactive),> 100 µM (inactive),> 100 µM (inactive),> 100 µM (inactive)
Cc1cc(N(CCC#N)CCC#N)ccc1C(/N=N/c1ccccc1)=N\NC(=O)c1cc(Cl)ccc1O,26.4 µM (inactive),18.4 µM,11.7 µM (inactive),33.1 µM (inactive),14.8 µM (inactive),7.71 µM (inactive),13.1 µM (inactive),77.6 µM (inactive),41.8 µM (inactive),–,23.8 µM (inactive),23.5 µM (inactive),32.4 µM (inactive),24.5 µM (inactive),15.7 µM (inactive),30.1 µM (inactive),59.2 µM (inactive),36.4 µM (inactive),46.8 µM (inactive),29.4 µM (inactive)
CCCCCCCCCC1(N=[N+]=[N-])C(=O)c2ccccc2N(C)C1=O (centres undefined),27 µM (inactive),30.3 µM,29.9 µM (inactive),2.22 µM (inactive),19.4 µM (inactive),17.3 µM (inactive),25.6 µM (inactive),29.9 µM (inactive),35.8 µM (inactive),19.3 µM (inactive),24.3 µM (inactive),19.4 µM (inactive),25.4 µM (inactive),37.2 µM (inactive),21.1 µM (inactive),40 µM (inactive),20.8 µM (inactive),2.58 µM (inactive),34.4 µM (inactive),25.5 µM (inactive)
BrCC(Br)(c1ccccc1)c1ccccc1-c1cc(-c2ccccc2)cc(-c2ccccc2)n1 (centres undefined),4.38 µM (inactive),15.2 µM,1.09 µM (active),1.48 µM (inactive),10.7 µM (inactive),–,3.94 µM (inactive),1.27 µM (inactive),3.55 µM (inactive),3.16 µM (inactive),4.52 µM (inactive),2.59 µM (inactive),1.89 µM (inactive),3.38 µM (inactive),2.81 µM (inactive),2.36 µM (inactive),4.48 µM (inactive),1.84 µM (inactive),5.87 µM (inactive),4.71 µM (inactive)
O=C(Nc1ccccc1)n1[nH]c(=O)n(-c2ccccc2)c1=O,–,> 100 µM,> 100 µM (inactive),> 100 µM (inactive),> 100 µM (inactive),> 100 µM (inactive),> 100 µM (inactive),> 100 µM (inactive),–,> 100 µM (inactive),> 100 µM (inactive),> 100 µM (inactive),> 100 µM (inactive),> 100 µM (inactive),> 100 µM (inactive),> 100 µM (inactive),> 100 µM (inactive),> 100 µM (inactive),> 100 µM (inactive),> 100 µM (inactive)
O=c1[nH]c2c(Nc3c4ccccc4nc4ccccc34)c([N+](=O)[O-])c(Nc3c4ccccc4nc4ccccc34)c([N+](=O)[O-])c2[nH]1,1.84 µM (inactive),1.82 µM,1.53 µM (inactive),2.33 µM (inactive),1.24 µM (inactive),1.39 µM (inactive),1.26 µM (inactive),2.48 µM (inactive),1.69 µM (inactive),1.17 µM (inactive),2.27 µM (inactive),2.05 µM (inactive),1.87 µM (inactive),1.33 µM (inactive),0.687 µM (active),1.98 µM (inactive),1.32 µM (inactive),2.15 µM (inactive),2.15 µM (inactive),1.55 µM (inactive)
